ChEMBL document CHEMBL2311250 (Bioorg Med Chem Lett, 2013)
pIC50: −log10 of the molar value. In brackets after ≈: the same amount, converted by molar mass.

Tests used:
[1] = target: MAP kinase-activated protein kinase 2 (Homo sapiens, UniProt P49137); assay: Inhibition of MAPKAP-K2 (unknown origin) in presence of ATP
[2] = target: Glycogen synthase kinase-3 beta (Homo sapiens, UniProt P49841); assay: Inhibition of GSK3-beta (unknown origin) in presence of ATP
[3] = target: Dual specificity protein kinase CLK1 (Homo sapiens, UniProt P49759); assay: Inhibition of CLK1 (unknown origin) in presence of ATP
[4] = target: Casein kinase I isoform delta (Homo sapiens, UniProt P48730); assay: Inhibition of CK1-delta (unknown origin) in presence of ATP
Aurora kinase A = Aurora kinase A (Homo sapiens, UniProt O14965); assay: Inhibition of Aurora-A (unknown origin) in presence of ATP
[5] = target: Inhibitor of nuclear factor kappa-B kinase subunit epsilon (Homo sapiens, UniProt Q14164); assay: Inhibition of IKKi (unknown origin) in presence of ATP
[6] = target: Tyrosine-protein kinase JAK3 (Homo sapiens, UniProt P52333); assay: Inhibition of JAK3 (unknown origin) in presence of ATP
[7] = target: RAC-alpha serine/threonine-protein kinase (Homo sapiens, UniProt P31749); assay: Inhibition of AKT1 (unknown origin) in presence of ATP
[8] = target: Fibroblast growth factor receptor 1 (Homo sapiens, UniProt P11362); assay: Inhibition of FGFR1 (unknown origin) in presence of ATP
CDK6/cyclin D3 = CDK6/cyclin D3 (Homo sapiens, UniProt Q00534); assay: Inhibition of CDK6/cyclin D3 (unknown origin) in presence of ATP; format: protein-complex assay
[9] = target: Serine/threonine-protein kinase Chk1 (Homo sapiens, UniProt O14757); assay: Inhibition of CHK1 (unknown origin) in presence of ATP
Casein kinase II = Casein kinase II (Homo sapiens, UniProt P19784+P67870+P68400); assay: Inhibition of CK2 (unknown origin) in presence of ATP; format: protein-complex assay
[10] = target: Tyrosine-protein kinase Lck (Homo sapiens, UniProt P06239); assay: Inhibition of LCK (unknown origin) in presence of ATP
CYP2D6 = CYP2D6 (Homo sapiens, UniProt P10635); assay: Inhibition of CYP2D6 (unknown origin) at 3 uM; format: ADME
[11] = Half life in rat liver microsomes; format: ADME, Microsome
[12] = Permeability of the compound by PAMPA; format: ADME; settings: read-out: permeability
Ephrin type-A receptor 2 = Ephrin type-A receptor 2 (Homo sapiens, UniProt P29317); assay: Inhibition of ECK (unknown origin) in presence of ATP
[13] = target: Mitogen-activated protein kinase 1 (Homo sapiens, UniProt P28482); assay: Inhibition of MAPK1/ERK2 (unknown origin) in presence of ATP
[14] = target: Tyrosine-protein kinase ABL1 (Homo sapiens, UniProt P00519); assay: Inhibition of ABL (unknown origin) in presence of ATP
[15] = target: Myosin light chain kinase 2, skeletal/cardiac muscle (Homo sapiens, UniProt Q9H1R3); assay: Inhibition of MYLK2 (unknown origin) in presence of ATP
[16] = Aqueous solubility of the compound at ph 6.5; format: physicochemical
[17] = target: Serine/threonine-protein kinase Nek2 (Homo sapiens, UniProt P51955); assay: Inhibition of NEK2 (unknown origin) in presence of ATP
hERG (KCNH2) = hERG (KCNH2) (Homo sapiens, UniProt Q12809); assay: Displacement of [3H]dofetilide from human ERG at 10 uM; settings: probe [3H]dofetilide
[18] = target: Inhibitor of nuclear factor kappa-B kinase subunit beta (Homo sapiens, UniProt O14920); assay: Inhibition of IKK-beta (unknown origin) in presence of ATP
[19] = target: Serine/threonine-protein kinase 26 (Homo sapiens, UniProt Q9P289); assay: Inhibition of MASK (unknown origin) in presence of ATP
[20] = target: Tyrosine-protein kinase BTK (Homo sapiens, UniProt Q06187); assay: Inhibition of BTK (unknown origin) in presence of ATP
[21] = target: Serine/threonine-protein kinase MARK1 (Homo sapiens, UniProt Q9P0L2); assay: Inhibition of MARK1 (unknown origin) in presence of ATP
[22] = target: Cyclin-dependent kinase 2/cyclin A (Homo sapiens, UniProt P24941); assay: Inhibition of CDK2/cyclin A (unknown origin) in presence of ATP; format: protein-complex assay
[23] = target: Mitogen-activated protein kinase kinase kinase 9 (Homo sapiens, UniProt P80192); assay: Inhibition of MAP3K9 (unknown origin) in presence of ATP
[24] = target: Serine/threonine-protein kinase 3 (Homo sapiens, UniProt Q13188); assay: Inhibition of MST2 (unknown origin) in presence of ATP
[25] = Half life in human liver microsomes; format: ADME, Microsome
[26] = target: Calcium/calmodulin-dependent protein kinase type 1 (Homo sapiens, UniProt Q14012); assay: Inhibition of CAMK1 (unknown origin) in presence of ATP
[27] = target: Serine/threonine-protein kinase Chk2 (Homo sapiens, UniProt O96017); assay: Inhibition of CHK2 (unknown origin) in presence of ATP

Sequence of Inhibitor of nuclear factor kappa-B kinase subunit beta (O14920 whole entry): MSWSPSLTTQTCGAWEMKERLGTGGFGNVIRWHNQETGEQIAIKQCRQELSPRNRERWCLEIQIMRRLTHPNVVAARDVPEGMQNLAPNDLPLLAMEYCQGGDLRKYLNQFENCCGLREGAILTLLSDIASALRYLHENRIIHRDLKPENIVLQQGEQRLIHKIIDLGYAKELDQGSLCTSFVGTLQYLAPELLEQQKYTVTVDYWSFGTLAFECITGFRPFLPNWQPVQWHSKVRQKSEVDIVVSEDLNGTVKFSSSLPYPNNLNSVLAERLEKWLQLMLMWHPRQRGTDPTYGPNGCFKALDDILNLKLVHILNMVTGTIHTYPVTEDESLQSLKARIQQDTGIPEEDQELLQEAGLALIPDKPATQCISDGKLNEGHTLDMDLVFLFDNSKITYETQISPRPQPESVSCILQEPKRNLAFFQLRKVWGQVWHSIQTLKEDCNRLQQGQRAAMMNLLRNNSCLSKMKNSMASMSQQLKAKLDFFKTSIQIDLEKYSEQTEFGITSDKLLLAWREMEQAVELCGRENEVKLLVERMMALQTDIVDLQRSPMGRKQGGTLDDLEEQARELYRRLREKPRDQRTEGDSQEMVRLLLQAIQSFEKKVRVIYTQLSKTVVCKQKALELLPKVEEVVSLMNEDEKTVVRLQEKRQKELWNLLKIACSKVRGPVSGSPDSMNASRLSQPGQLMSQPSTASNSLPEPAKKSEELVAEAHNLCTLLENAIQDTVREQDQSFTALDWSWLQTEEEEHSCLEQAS
Sequence of Dual specificity protein kinase CLK1 (P49759 whole entry, canonical isoform): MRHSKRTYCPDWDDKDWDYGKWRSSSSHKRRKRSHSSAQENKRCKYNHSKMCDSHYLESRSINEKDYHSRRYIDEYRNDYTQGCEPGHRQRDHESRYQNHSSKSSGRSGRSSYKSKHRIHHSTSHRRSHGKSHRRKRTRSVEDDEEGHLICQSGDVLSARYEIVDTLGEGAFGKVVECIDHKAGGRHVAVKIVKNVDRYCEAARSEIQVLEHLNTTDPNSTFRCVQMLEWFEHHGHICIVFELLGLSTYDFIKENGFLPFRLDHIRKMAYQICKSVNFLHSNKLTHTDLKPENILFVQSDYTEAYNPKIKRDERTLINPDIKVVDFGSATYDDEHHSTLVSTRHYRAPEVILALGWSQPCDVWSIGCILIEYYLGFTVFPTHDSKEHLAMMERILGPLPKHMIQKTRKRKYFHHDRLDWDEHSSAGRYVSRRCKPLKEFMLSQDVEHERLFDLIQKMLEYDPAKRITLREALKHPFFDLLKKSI
Sequence of hERG (KCNH2) (Q12809 whole entry): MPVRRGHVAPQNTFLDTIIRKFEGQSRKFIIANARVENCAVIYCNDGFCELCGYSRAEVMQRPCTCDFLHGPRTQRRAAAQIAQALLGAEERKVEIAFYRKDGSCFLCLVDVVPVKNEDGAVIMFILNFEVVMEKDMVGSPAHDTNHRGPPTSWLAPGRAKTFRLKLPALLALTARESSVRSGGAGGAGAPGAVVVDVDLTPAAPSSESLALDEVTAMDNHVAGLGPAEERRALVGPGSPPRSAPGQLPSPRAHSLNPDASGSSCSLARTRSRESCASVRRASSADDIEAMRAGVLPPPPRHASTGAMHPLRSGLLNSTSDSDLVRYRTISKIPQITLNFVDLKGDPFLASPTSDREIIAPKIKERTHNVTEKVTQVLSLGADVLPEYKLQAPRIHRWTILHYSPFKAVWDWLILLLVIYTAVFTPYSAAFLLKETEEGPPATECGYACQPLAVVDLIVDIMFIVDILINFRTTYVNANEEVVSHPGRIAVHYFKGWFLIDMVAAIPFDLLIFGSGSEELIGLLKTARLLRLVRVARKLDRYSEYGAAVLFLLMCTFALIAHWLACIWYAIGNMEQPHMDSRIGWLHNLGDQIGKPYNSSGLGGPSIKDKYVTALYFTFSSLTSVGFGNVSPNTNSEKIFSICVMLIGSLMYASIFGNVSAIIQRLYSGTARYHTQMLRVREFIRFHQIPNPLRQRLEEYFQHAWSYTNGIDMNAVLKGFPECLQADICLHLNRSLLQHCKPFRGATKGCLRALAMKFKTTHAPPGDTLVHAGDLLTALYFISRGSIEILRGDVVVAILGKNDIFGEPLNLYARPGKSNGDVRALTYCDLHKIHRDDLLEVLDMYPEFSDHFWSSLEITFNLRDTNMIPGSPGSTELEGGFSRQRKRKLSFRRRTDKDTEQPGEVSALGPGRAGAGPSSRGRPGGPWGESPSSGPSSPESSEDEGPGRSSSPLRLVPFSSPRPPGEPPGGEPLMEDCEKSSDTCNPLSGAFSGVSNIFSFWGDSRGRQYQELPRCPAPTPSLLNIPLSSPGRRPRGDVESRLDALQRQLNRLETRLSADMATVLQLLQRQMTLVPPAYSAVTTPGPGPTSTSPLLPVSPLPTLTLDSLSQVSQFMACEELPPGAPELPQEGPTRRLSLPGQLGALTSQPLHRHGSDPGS
Sequence of Serine/threonine-protein kinase Chk1 (O14757 whole entry): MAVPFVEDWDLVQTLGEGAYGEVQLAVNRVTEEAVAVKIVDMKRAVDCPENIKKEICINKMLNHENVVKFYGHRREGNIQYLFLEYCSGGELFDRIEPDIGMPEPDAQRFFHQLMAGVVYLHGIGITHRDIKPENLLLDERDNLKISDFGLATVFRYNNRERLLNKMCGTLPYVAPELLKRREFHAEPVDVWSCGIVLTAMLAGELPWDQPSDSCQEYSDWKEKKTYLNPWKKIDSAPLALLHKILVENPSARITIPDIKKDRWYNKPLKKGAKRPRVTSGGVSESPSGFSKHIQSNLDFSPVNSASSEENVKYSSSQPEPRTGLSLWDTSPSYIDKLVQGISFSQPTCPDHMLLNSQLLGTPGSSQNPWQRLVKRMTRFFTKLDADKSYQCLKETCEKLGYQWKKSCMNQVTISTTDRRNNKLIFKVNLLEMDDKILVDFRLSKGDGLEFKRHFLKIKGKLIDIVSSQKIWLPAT
Sequence of Serine/threonine-protein kinase 26 (Q9P289 whole entry): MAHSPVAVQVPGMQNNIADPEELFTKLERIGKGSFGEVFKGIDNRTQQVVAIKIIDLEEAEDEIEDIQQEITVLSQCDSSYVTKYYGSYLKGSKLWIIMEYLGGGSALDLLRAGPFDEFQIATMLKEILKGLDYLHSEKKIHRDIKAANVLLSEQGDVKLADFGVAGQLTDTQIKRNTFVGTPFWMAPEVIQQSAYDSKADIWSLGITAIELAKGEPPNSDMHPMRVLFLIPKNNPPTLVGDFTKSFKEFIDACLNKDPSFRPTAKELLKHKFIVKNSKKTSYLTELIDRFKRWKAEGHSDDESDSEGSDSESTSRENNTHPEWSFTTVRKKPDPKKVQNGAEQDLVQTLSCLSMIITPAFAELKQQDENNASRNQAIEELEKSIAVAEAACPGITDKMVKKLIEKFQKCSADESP
Sequence of Tyrosine-protein kinase Lck (P06239 whole entry): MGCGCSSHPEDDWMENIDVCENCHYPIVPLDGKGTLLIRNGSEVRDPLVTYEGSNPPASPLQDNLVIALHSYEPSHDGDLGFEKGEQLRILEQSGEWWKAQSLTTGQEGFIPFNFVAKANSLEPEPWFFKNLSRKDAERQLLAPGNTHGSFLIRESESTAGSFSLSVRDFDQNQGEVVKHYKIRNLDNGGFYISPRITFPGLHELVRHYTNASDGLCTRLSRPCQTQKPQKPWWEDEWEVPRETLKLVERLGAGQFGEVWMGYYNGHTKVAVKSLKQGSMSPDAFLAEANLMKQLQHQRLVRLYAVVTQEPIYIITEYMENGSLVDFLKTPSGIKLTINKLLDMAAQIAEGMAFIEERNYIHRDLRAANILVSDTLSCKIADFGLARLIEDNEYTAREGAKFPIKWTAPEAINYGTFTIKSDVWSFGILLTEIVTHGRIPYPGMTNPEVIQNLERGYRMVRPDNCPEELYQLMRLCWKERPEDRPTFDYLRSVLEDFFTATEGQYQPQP
Sequence of Tyrosine-protein kinase BTK (Q06187 whole entry): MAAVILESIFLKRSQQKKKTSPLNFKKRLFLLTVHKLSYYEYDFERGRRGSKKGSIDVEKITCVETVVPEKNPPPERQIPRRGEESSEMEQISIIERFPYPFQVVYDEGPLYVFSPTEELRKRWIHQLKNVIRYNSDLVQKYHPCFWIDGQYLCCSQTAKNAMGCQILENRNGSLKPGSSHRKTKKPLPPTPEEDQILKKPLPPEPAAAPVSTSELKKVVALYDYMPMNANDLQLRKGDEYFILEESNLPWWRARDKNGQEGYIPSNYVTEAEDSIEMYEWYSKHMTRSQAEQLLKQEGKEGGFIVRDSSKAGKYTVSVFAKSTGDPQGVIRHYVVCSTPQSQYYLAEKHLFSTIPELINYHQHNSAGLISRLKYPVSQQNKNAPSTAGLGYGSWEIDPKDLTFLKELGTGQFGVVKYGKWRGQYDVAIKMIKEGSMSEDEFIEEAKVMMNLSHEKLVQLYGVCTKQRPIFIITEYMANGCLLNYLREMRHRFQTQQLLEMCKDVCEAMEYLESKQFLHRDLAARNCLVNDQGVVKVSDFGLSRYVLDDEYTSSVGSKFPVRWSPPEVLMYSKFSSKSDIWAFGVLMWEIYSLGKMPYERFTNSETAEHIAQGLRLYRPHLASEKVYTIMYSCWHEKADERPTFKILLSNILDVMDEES
Sequence of Mitogen-activated protein kinase 1 (P28482 whole entry): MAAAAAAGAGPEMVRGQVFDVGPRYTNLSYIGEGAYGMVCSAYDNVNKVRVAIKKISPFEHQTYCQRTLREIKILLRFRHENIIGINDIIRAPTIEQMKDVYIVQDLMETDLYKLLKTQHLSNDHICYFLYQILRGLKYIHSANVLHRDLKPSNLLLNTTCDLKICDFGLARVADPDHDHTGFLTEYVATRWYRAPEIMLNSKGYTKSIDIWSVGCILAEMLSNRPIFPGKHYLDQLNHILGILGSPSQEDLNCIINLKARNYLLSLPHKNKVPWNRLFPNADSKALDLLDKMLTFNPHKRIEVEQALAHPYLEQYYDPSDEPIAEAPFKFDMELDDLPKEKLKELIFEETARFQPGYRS

- pIC50 [1]: 4.73
- pIC50 [2]: 5.11
- pIC50 [3]: 5.79
- pIC50 [4]: 6.96
- pIC50 (Aurora kinase A): 5.81
- pIC50 [5]: 4.52
- pIC50 [6]: 5.28
- pIC50 [7]: 5.51
- pIC50 [8]: 5.77
- pIC50 (CDK6/cyclin D3): 4.52
- pIC50 [9]: 5.86
- pIC50 (Casein kinase II): 5.12
- pIC50 [10]: 6.66
- inhibition at 3 µM (CYP2D6): 69%
- half-life [11]: 6 min
- Papp [12]: 0.03 ×10⁻⁶ cm/s
- pIC50 (Ephrin type-A receptor 2): 5.61
- pIC50 [13]: 4.52
- pIC50 [14]: 6.09
- pIC50 [15]: 5.31
- solubility [16]: 2.3 µM (≈ 1.06 µg/mL)
- pIC50 [17]: 5.60
- pIC50 [18]: 4.52
- pIC50 [19]: 5.42
- pIC50 [20]: 6.02
- pIC50 [21]: 5.83
- pIC50 [22]: 5.94
- pIC50 [23]: 6.80
- pIC50 [24]: 6.33
- half-life [25]: 28 min
- pIC50 [26]: 5.41
- pIC50 [27]: 5.10
Compound: Cc1cc(-c2cnc(Nc3cc(Cl)cc(Cl)c3)nc2NC2CCC(N(C)C)CC2)on1 (stereo not drawn)
- inhibition at 10 µM (hERG (KCNH2)): 0.35%
